Assay results taken from article PMC8062851, “2-Methoxyestradiol and its derivatives inhibit store-operated Ca^2+ entry in T cells: Identification of a new and potent inhibitor” (Biochimica et Biophysica Acta. Molecular Cell Research, 2021).
Entries after “also recorded” stand apart in the source; their conditions may differ. Like-named read-outs stand apart in the source and are kept apart here.

Legend:
Type in all cases: cell-based
[1] = biological target: T1, KV channels (Homo sapiens, UniProt P22001); assay: Whole-cell patch clamp of KV channels in Jurkat T cells; details: STX564 at 10 μM
T1 construct: About 10^5 Jurkat T-lymphocytes were placed into this recording chamber; endogenous in cells; host or cells: Jurkat T-lymphocytes (whole-cell patch clamp)
T1 sequence (P22001 whole entry): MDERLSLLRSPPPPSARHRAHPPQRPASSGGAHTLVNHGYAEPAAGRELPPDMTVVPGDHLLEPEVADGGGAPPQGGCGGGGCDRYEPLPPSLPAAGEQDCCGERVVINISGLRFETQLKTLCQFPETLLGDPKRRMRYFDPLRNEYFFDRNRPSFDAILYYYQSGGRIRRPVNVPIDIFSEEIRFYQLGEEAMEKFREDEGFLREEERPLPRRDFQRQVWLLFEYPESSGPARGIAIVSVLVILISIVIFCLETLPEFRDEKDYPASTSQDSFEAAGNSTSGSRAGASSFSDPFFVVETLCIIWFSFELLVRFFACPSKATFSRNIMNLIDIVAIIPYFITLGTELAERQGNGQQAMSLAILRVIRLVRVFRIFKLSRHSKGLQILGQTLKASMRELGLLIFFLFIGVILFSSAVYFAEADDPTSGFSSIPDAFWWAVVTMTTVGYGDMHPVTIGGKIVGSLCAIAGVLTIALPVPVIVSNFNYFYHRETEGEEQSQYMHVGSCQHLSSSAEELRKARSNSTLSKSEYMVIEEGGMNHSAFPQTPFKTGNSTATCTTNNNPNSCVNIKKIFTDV

[2] = system: SOCE in human Jurkat T cells; assay: cells; details: Ca2+ free/Ca2+ re-addition protocol, plateau 425-475 s after re-addition of 1 mM Ca2+
Method: (§1) Jurkat T-lymphocytes, primary human CD4^+ T cells and H1299 cells were pelleted at 450 ×g for 5 min, rat TMBP at 300 ×g for 8 min at room temperature and were resuspended in 1 ml of either standard JMP medium (Jurkat, H1299 and human CD4^+ T cells) or standard DMEM based medium containing 10% fetal bovine serum (FBS) (v/v) (TMBP cells). Resting TMBP cells (day 5–7 after re-stimulation) after the second to fifth re-stimulation were thawed from liquid nitrogen 12 to 40 h prior to Fura2-loading. After pre-incubation for 5 min at 37 °C, cells were incubated with 4 μM Fura2-AM for 15 min at 37 °C. After addition of the dye, cells were kept in the dark. Afterwards, cells and the dye were diluted by addition of 4 ml standard medium and incubated for another 15 min. Cells were washed twice in Ca^2+ buffer (140 mM NaCl, 5 mM KCl, 1 mM MgSO4, 1 mM CaCl2, 1 mM NaH2PO4, 20 mM HEPES, 5.5 mM glucose; pH 7.4 (NaOH), sterile filtered) and were diluted to a concentration of 2*10^6 cells/ml. Subsequently, cells were kept at room temperature for 20 min for de-esterification before the start of the first measurement.
In experiments using a Ca^2+ free/Ca^2+ re-addition protocol, cells were pelleted as described for Fura2 loading and Ca^2+ buffer was exchanged by 1 ml nominal Ca^2+ free buffer (140 mM NaCl, 5 mM KCl, 1 mM MgSO4, 1 mM NaH2PO4, 20 mM HEPES, 5.5 mM glucose; pH 7.4 (NaOH), sterile filtered) immediately before starting the measurement. The measurement was controlled by FL Solutions (Version 4.1, Hitachi High-Technologies Corporation). Fura2 was alternatively excited every 2 s at 340 ± 5 nm and 380 ± 5 nm, each 400 ms apart.
Finally, every measurement was calibrated using 0.1% (v/v) Triton X-100 to obtain a maximal ratio and 4 mM EGTA and 30 mM Tris to obtain a minimal ratio.
R is the ratio between F340 and F380. Rmin and Rmax are the minimal and maximal ratio, respectively, obtained by calibration. F380 min and F380 max are the minimal and maximal fluorescence intensity at 380 nm EX during the calibration. Finally, artefacts due to compound additions that usually could easily be identified and lasted about 8 s were deleted from the tracings using FL Solutions (Version 4.1, Hitachi High-Technologies Corporation). The fluorescence intensities of deleted data points were interpolated from those just before and after the deleted time points.
Estradiol, 2ME2 and 2ME2 derivatives were dissolved in DMSO at a concentration of 50 mM and stored at −20 °C for up to 6 months. For concentration-response curves, stock solution was freshly diluted with DMSO to obtain the same DMSO concentration of 0.2% (v/v) for all conditions.
The compound concentrations were then log transformed. Finally, the data were fitted to a corresponding nonlinear fit of variable slope using Prism 6 (GraphPad Software, USA).

[3] = system: SOCE in primary human CD4+ T cells; assay: SOCE inhibition, Ca2+ free/Ca2+ re-addition protocol in primary human CD4+ T cells
Method: Buffy coats were obtained from the blood bank of the University Medical Center Hamburg-Eppendorf (UKE) and peripheral blood mononuclear cells (PBMCs) were isolated by Biocoll density gradient centrifugation (Merck). Human CD4^+ T cells were isolated from PBMCs by negative selection using the EasySep Human CD4^+ T Cell Enrichment Kit (Stemcell Technologies) according to the manufacturer's protocol. The purity of the isolated cells was assessed by flow cytometry.
as §1
10^6 Jurkat T-lymphocytes, H1299 cells, TMBP cells or 4*10^6 primary human CD4^+ T cells were added into a 10 × 10 mm quartz glass cuvette (Hellma Analytics, Germany) that was placed into a fluorescence spectrophotometer (F-2710, Hitachi, Japan). […] Fluorescence intensity was measured at an emission wavelength of 495 ± 5 nm for both excitation wavelengths.

[4] = biological target: T2, ORAI1 (Homo sapiens, UniProt Q96D31); assay: Live cell Ca2+ imaging of G-GECO1.2-ORAI1 transfected Jurkat T cells; details: 10 μM
T2 construct: host or cells: Jurkat T-lymphocytes (electroporation)
T2 sequence (Q96D31 whole entry): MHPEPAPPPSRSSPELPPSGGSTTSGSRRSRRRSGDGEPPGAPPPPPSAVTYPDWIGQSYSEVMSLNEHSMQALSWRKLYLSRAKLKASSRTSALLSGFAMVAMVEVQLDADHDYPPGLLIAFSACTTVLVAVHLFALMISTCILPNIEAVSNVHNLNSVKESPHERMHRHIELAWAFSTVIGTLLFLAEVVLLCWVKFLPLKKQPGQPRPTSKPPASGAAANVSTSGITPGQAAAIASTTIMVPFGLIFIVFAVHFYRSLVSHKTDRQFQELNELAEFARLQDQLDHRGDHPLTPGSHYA
Method: 12.5 ∗ 10^6 Jurkat T–lymphocytes were pelleted at 400 to 450 ×g for 5 min at room temperature and pellets were dissolved in 500 μl RPMI 1640 medium (Gibco) without phenol red containing L-glutamine, supplemented with 7.5% (v/v) NCS. 30 μg plasmid-DNA (G-GECO1.2-ORAI1) was transferred into a 4 mm electroporation cuvette (Biozym, Austria) and the Jurkat T-lymphocytes were added. G-GECO1.2-ORAI1 was a gift from Michael Cahalan, USA (Addgene plasmid # 73562). After an incubation of 5 min at 37 °C, cells were electroporated with 960 μF and 240 V (τ: […]). […]
17 to 22 h after electroporation, 5 ∗ 10^4 cells were pelleted at 400–450 ×g for 5 min at room temperature and cell pellets were dissolved in 50 μl nominal Ca^2+ free buffer. […] The fluorophore was excited at 488 nm every 2 s for 30 min and fluorescence was measured at 520 nm using Volocity (Version 6.3, Perkin Elmer).
Using ImageJ (Version 1.51 k, National Institutes of Health, USA) the pictures were analyzed for mean fluorescence in the outer ring of Jurkat T-lymphocytes employing ring-shaped regions of interest (ROIs). […] The mean background fluorescence values were subtracted from the signal in every image. For quantitative analysis, fluorescence intensities were normalized to the first fluorescence intensity (F/F0).

In the case of CCc1cc2c(cc1OS(N)(=O)=O)CC[C@@H]1[C@@H]2CC[C@]2(C)[C@@H](CC#N)CC[C@@H]12 [STX564, 2-ethyl-3-sulfamoyloxy-17β-cyanomethylestra-1,3,5(10)-triene], the “effect on KV channel currents” value [1] is reported as “does not inhibit KV channels; also recorded: no inhibition; also recorded: does not inhibit the KV1.3 channel”, the IC50 ([2]; Homo sapiens, Jurkat, read-out: IC50 of SOCE inhibition, Jurkat T cells) is reported as 1200 nM and the IC50 ([2]; read-out: IC50 of SOCE inhibition, Jurkat T cells) is reported as about 1000 nM. The “Ca2+ release upon drug addition in absence of extracellular Ca2+” value ([3]; 10 μM) was “Ca^2+ release was observed directly upon drug addition”, the “steady-state plateau phase of Ca2+ entry” value ([3]; 10 μM) was “re-reached after a few min” and the “initial Ca2+ peak after Ca2+ re-addition and Ca2+ entry at later stages” value ([3]; 1 and 2 μM) was “efficiently inhibited”. For the same compound, the “SOCE by ORAI1 (G-GECO1.2-ORAI1 fluorescence)” value [4] was “almost completely diminished”.
